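Tested at 5 concentrations; 48 h exposure; 96-well plates; endpoints linearly interpolated, else capped at highest concentration. Abbreviation: GI50, concentration required for 50% inhibition of growth.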 Calls of active or inactive are those of the source. Rule as the data show it: active = GI50 up to about 1.1 µM and inactive = higher.
What was measured:
Assay in all cases: growth of human tumour cells (NCI), 48 h
[1] = tested on: SW-620
[2] = tested on: OVCAR-8
[3] = tested on: SNB-19
[4] = tested on: MDA-N
[5] = tested on: KM12
[6] = tested on: HOP-62
[7] = tested on: UO-31
[8] = tested on: IGROV-1
[9] = tested on: M14
[10] = tested on: SNB-75
[11] = tested on: LOX IMVI
[12] = tested on: UACC-257
[13] = tested on: UACC-62
[14] = tested on: HT-29
[15] = tested on: HCT-15
[16] = tested on: HCT-116
[17] = tested on: MCF7
[18] = tested on: SN12C
[19] = tested on: SF-295
[20] = tested on: NCI/ADR-RES

| SMILES | GI50 [1] | GI50 [2] | GI50 [3] | GI50 [4] | GI50 [5] | GI50 [6] | GI50 [7] | GI50 [8] | GI50 [9] | GI50 [10] | GI50 [11] | GI50 [12] | GI50 [13] | GI50 [14] | GI50 [15] [µM] | GI50 [16] | GI50 [17] | GI50 [18] | GI50 [19] | GI50 [20] |
| --- | --- | --- | --- | --- | --- | --- | --- | --- | --- | --- | --- | --- | --- | --- | --- | --- | --- | --- | --- | --- |
| O=C(CCN1CCOCC1)Nc1ccc2sc3ccccc3c(=O)c2n1 | 27.4 µM (inactive) | 35.9 µM (inactive) | 49.2 µM (inactive) | 23.3 µM (inactive) | 50.4 µM (inactive) | 44.7 µM (inactive) | 25.8 µM (inactive) | 30.1 µM (inactive) | 37.8 µM (inactive) | 19.6 µM (inactive) | 19.6 µM (inactive) | 62.2 µM (inactive) | 34.8 µM (inactive) | > 100 µM (inactive) | 33.9 | 23 µM (inactive) | 49.8 µM (inactive) | 35 µM (inactive) | 82.4 µM (inactive) | 43.4 µM (inactive) |
| N#CCCN(CCCN(C(=O)Nc1ccccc1)c1ccccc1)C(=O)Nc1ccccc1 | > 100 µM (inactive) | > 100 µM (inactive) | 64.3 µM (inactive) | > 100 µM (inactive) | 87.9 µM (inactive) | > 100 µM (inactive) | 58.3 µM (inactive) | > 100 µM (inactive) | > 100 µM (inactive) | 44.8 µM (inactive) | > 100 µM (inactive) | > 100 µM (inactive) | > 100 µM (inactive) | > 100 µM (inactive) | > 100 | > 100 µM (inactive) | 84.5 µM (inactive) | > 100 µM (inactive) | > 100 µM (inactive) | > 100 µM (inactive) |
| CCCCC(C#N)(OP1(=O)OC(c2ccccc2)C(C)N1C)c1ccccc1 (stereo not given) | 16.4 µM (inactive) | 17.6 µM (inactive) | 19.2 µM (inactive) | 16.4 µM (inactive) | 19.6 µM (inactive) | 21.6 µM (inactive) | 17.3 µM (inactive) | 16.7 µM (inactive) | 20.7 µM (inactive) | 18.2 µM (inactive) | 18.9 µM (inactive) | 18.3 µM (inactive) | 14.3 µM (inactive) | 18.1 µM (inactive) | 20.3 | 16.2 µM (inactive) | 19.9 µM (inactive) | 16.7 µM (inactive) | 17.5 µM (inactive) | 20 µM (inactive) |
| COc1cc(C2SCC(=O)N2c2ccc(NC(=O)c3ccc(N4C(=O)CSC4c4cc(OC)c(OC)c(OC)c4)cc3)cc2)cc(OC)c1OC (stereo not given) | 36.9 µM (inactive) | 40.3 µM (inactive) | 84.1 µM (inactive) | 23.1 µM (inactive) | 33 µM (inactive) | 76.4 µM (inactive) | 67.1 µM (inactive) | 32.4 µM (inactive) | 73.1 µM (inactive) | 22.2 µM (inactive) | 31.8 µM (inactive) | 60.5 µM (inactive) | 24.9 µM (inactive) | 93.1 µM (inactive) | 38.5 | 35.1 µM (inactive) | 43.3 µM (inactive) | > 100 µM (inactive) | 29.3 µM (inactive) | 25.2 µM (inactive) |
| CCOC(=O)/C=C(\C(=O)OCC)n1ccc(=O)n(Cc2cn(CCCCOC(C)=O)nn2)c1=O | 3.14 µM (inactive) | 7.01 µM (inactive) | > 39.7 µM (inactive) | 19.5 µM (inactive) | 16 µM (inactive) | 20.7 µM (inactive) | 15.3 µM (inactive) | 19.5 µM (inactive) | 23.9 µM (inactive) | 19.5 µM (inactive) | 14.9 µM (inactive) | 17.4 µM (inactive) | 16.1 µM (inactive) | 8.05 µM (inactive) | 7.01 | 11.2 µM (inactive) | 7.69 µM (inactive) | 15.2 µM (inactive) | 35.9 µM (inactive) | 19.9 µM (inactive) |
| CC(C)(C)NC(=O)[C@H]1CC[C@H]2[C@@H]3CC=C4NC(=O)CC[C@]4(C)[C@H]3CC[C@]12C | > 100 µM (inactive) | 70.3 µM (inactive) | > 100 µM (inactive) | > 100 µM (inactive) | > 100 µM (inactive) | > 100 µM (inactive) | > 100 µM (inactive) | > 100 µM (inactive) | > 100 µM (inactive) | 22.6 µM (inactive) | > 100 µM (inactive) | 69.3 µM (inactive) | > 100 µM (inactive) | > 100 µM (inactive) | > 100 | > 100 µM (inactive) | 32.4 µM (inactive) | > 100 µM (inactive) | > 100 µM (inactive) | 64.9 µM (inactive) |
| C#CCn1c(=O)ccn(/C(=C/C(=O)OCC)C(=O)OCC)c1=O | 1.86 µM (inactive) | 2.2 µM (inactive) | 19 µM (inactive) | 17.2 µM (inactive) | 17.4 µM (inactive) | 13 µM (inactive) | 12.6 µM (inactive) | 4.21 µM (inactive) | 4.05 µM (inactive) | 20.8 µM (inactive) | 13.9 µM (inactive) | 15 µM (inactive) | 14 µM (inactive) | 2.17 µM (inactive) | 1.06 | 6.15 µM (inactive) | 3.18 µM (inactive) | 9.08 µM (inactive) | 24.6 µM (inactive) | 3.7 µM (inactive) |
| O=C(O)CCc1nc2cc3ccccc3cc2[nH]c1=O | > 100 µM (inactive) | > 100 µM (inactive) | > 100 µM (inactive) | > 100 µM (inactive) | > 100 µM (inactive) | > 100 µM (inactive) | > 100 µM (inactive) | > 100 µM (inactive) | > 100 µM (inactive) | > 100 µM (inactive) | > 100 µM (inactive) | > 100 µM (inactive) | > 100 µM (inactive) | > 100 µM (inactive) | > 100 | > 100 µM (inactive) | 65.6 µM (inactive) | > 100 µM (inactive) | > 100 µM (inactive) | > 100 µM (inactive) |
| O=C(/C=C/c1ccc(Cl)cc1)c1cccs1 | 12.9 µM (inactive) | 21.7 µM (inactive) | 18.2 µM (inactive) | 16.3 µM (inactive) | 13.9 µM (inactive) | 26.5 µM (inactive) | 18 µM (inactive) | 29.9 µM (inactive) | 20.9 µM (inactive) | 22.5 µM (inactive) | 11.4 µM (inactive) | 19.6 µM (inactive) | 21 µM (inactive) | 16.5 µM (inactive) | 17.5 | 14.8 µM (inactive) | 3.62 µM (inactive) | 16.5 µM (inactive) | 20 µM (inactive) | 24.3 µM (inactive) |
| CN(C)CCNC(=O)c1cccc2c(NC(CCCNC(=N)N)C(=O)O)c3ccccc3[n+](C)c12 (stereo not given) | 53.5 µM (inactive) | 92 µM (inactive) | > 100 µM (inactive) | 61.5 µM (inactive) | > 100 µM (inactive) | 68.1 µM (inactive) | > 100 µM (inactive) | 59 µM (inactive) | > 100 µM (inactive) | 28.1 µM (inactive) | 66.1 µM (inactive) | > 100 µM (inactive) | > 100 µM (inactive) | > 100 µM (inactive) | > 100 | 45.6 µM (inactive) | 45.4 µM (inactive) | 32.4 µM (inactive) | > 100 µM (inactive) | 27.7 µM (inactive) |
| COc1ccc(OC)c2sc(N3C(=O)/C(=C/c4ccc(Cl)cc4)N=C3c3ccccc3)nc12 | 67.9 µM (inactive) | 60.3 µM (inactive) | > 100 µM (inactive) | 34.2 µM (inactive) | 60 µM (inactive) | > 100 µM (inactive) | > 100 µM (inactive) | 85.9 µM (inactive) | > 100 µM (inactive) | 89.3 µM (inactive) | 34.2 µM (inactive) | 51.2 µM (inactive) | 76.6 µM (inactive) | > 100 µM (inactive) | 98.4 | > 100 µM (inactive) | 29.7 µM (inactive) | > 100 µM (inactive) | 76.6 µM (inactive) | > 100 µM (inactive) |
| COc1cc(C2c3cc4c(cc3[C@@H](Nc3ccc(C#N)cc3)C3COC(=O)[C@H]23)OCO4)cc(OC)c1O (stereo not given in full) | 0.889 µM (active) | 0.975 µM (active) | 1.39 µM (inactive) | 6.21 µM (inactive) | 5.33 µM (inactive) | 0.592 µM (active) | 1.62 µM (inactive) | 6.78 µM (inactive) | 1.35 µM (inactive) | 2.6 µM (inactive) | 1.08 µM (active) | 7.26 µM (inactive) | 0.962 µM (active) | 3.05 µM (inactive) | 2.31 | 2.01 µM (inactive) | 0.881 µM (active) | 1.05 µM (active) | 0.767 µM (active) | 3.98 µM (inactive) |
| Nc1c2c(nc3ccccc13)-c1ccccc1NCCC2 | 23.4 µM (inactive) | 42.2 µM (inactive) | 53 µM (inactive) | 17.5 µM (inactive) | 35.2 µM (inactive) | 16.6 µM (inactive) | 25 µM (inactive) | 33.3 µM (inactive) | 17.4 µM (inactive) | 43.4 µM (inactive) | 16.8 µM (inactive) | 13.6 µM (inactive) | 18.3 µM (inactive) | 23 µM (inactive) | 35.6 | 23.3 µM (inactive) | 34.2 µM (inactive) | 33.3 µM (inactive) | 17.7 µM (inactive) | 68.2 µM (inactive) |
| NS(=O)(=O)c1ccc(/N=N/c2cccnc2O)cc1 | > 100 µM (inactive) | > 100 µM (inactive) | > 100 µM (inactive) | > 100 µM (inactive) | > 100 µM (inactive) | > 100 µM (inactive) | > 100 µM (inactive) | > 100 µM (inactive) | > 100 µM (inactive) | > 100 µM (inactive) | > 100 µM (inactive) | > 100 µM (inactive) | > 100 µM (inactive) | > 100 µM (inactive) | > 100 | > 100 µM (inactive) | > 100 µM (inactive) | > 100 µM (inactive) | > 100 µM (inactive) | > 100 µM (inactive) |
